Experimental findings from US12304899B2, “Factor XI activation inhibitors” (Merck Sharp & Dohme LLC, priority 2019, dated 2025) are described below.

In the experiment the target is T1, Human coagulation factor (F)XI (Homo sapiens, UniProt P03951).
T1 construct: purchased Haematologic Technologies Inc. (FXI); Enzyme Research Laboratories (FXIIa) HCXI-150 (FXI); HFXIIa (FXIIa)
T1 sequence (P03951 19-625): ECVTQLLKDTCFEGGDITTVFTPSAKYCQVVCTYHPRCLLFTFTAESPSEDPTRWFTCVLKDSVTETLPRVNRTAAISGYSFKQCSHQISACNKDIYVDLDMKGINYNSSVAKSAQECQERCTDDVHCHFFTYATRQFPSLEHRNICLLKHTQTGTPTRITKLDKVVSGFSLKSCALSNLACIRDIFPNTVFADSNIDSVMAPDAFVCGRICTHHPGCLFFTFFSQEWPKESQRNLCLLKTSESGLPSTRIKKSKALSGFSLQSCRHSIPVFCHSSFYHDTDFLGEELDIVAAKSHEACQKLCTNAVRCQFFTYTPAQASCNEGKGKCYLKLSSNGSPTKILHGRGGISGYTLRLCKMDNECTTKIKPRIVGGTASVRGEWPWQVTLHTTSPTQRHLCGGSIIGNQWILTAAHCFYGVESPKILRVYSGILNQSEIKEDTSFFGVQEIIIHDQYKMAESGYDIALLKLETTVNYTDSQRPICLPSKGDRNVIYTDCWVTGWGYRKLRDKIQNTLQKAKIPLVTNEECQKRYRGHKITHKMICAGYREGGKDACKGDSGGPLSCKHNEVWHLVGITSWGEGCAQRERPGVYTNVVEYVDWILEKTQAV
Briefly: Inhibition of FXIIa mediated activation of FXI (activation of human Factor XI to XIa by human Factor α-XIIa). The settings on record: human FXI pre-incubated with compound 30 min at 22° C., activation by human FXIIa 60 min, z-GPR-AFC substrate fluorescence, 4 parameter logistic fit; read-out: Inhibition of FXIIa meditated activation of FXI. In kind it is biochemical. In short, it runs like this: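 Human FXI (46 nM stock) preincubated 30 min at 22 °C with compound (10-point, 3.333-fold dilutions), then activated by human α-FXIIa (30 nM stock) for 60 min in HEPES/NaCl/CaCl2/PEG buffer, pH 7.4. After quench with a selective FXIIa inhibitor, FXIa generation read by z-GPR-AFC cleavage (60 min, fluorescence 405/510 nm); EC50 from 4-parameter logistic fit.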
Regarding `CC1(O)CCN(C(=O)c2cc(C(=O)N3CCCCC3)c3cc(OCc4ccc5c(c4Cl)COC5=O)ccc3n2)C1` (racemic) [Example 4, rac-4-chloro-5-(((2-(3-hydroxy-3-methylpyrrolidine-1-carbonyl)-4-(piperidine-1-carbonyl)quinolin-6-yl)oxy)methyl)isobenzofuran-1(3H)-one], the EC50 is 9.6 nM.

As for `O=C(c1cc(C(=O)N2CCCCC2)c2cc(OCc3nc4ccccc4s3)ccc2n1)N1CCN(CC(F)F)CC1` [Example 67, (6-(benzo[d]thiazol-2-yl-methoxy)-2-(4-(2,2-difluoroethyl)piperazine-1-carbonyl)quinolin-4-yl)-(piperidin-1-yl)methanone], the EC50 is 34.7 nM.

On to `N#CC1(c2ccccc2)CCN(C(=O)c2cc(C(=O)N3CCCCC3)c3cc(OCc4ccc(OC(F)(F)F)cc4)ccc3n2)CC1` [Example 35, 4-phenyl-1-(4-(piperidine-1-carbonyl)-6-((4-(trifluoro-methoxy)benzyl)oxy)quin-oline-2-carbonyl)piperidine-4-carbonitrile], for which the EC50 stood at 37.7 nM.

`N#CC1(c2ccccc2)CCN(C(=O)c2cc(C(=O)N3CCCCC3)c3cc(OCc4cccc([N+](=O)[O-])c4)ccc3n2)CC1` [Example 29, 1-(6-((3-nitrobenzyl)oxy)-4-(piperidine-1-carbonyl)quin-oline-2-carbonyl)-4-phenyl-piperidine-4-carbonitrile]: the EC50 was determined as 39.7 nM.

Turning to `O=C(c1cc(C(=O)N2CCCCC2)c2cc(OCc3nc4ccccc4s3)ccc2n1)N1CCC(n2cc(F)cn2)CC1` [Example 69, (6-(benzo[d]thiazol-2-yl-methoxy)-2-(4-(4-fluoro-1H-pyrazol-1-yl)piperi-dine-1-carbonyl)quinolin-4-yl)(piperidin-1-yl) methanone], the EC50 stood at 45.9 nM.
